Results published in PubChem BioAssay AID977613 (Broad Institute, 2014).
Active and inactive are the calls of the source. The rule behind the calls is not given here.

system: Broad 7084-01 inhibitor HTS, set 2; assay: single-concentration hits, screen 7084 set 2 (AID 977613);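 note: host cells are infected with parasite promastigotes that become internalized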

Question: `CCC(=O)N1CC(=O)N2[C@H](CO)[C@H](c3ccc(-c4ccc(C#N)cc4)cc3)[C@H]2C1` was tested. Which active concentration did it give?
Answer: > 10 µM (inactive)

Question: `CC(C)NC(=O)Nc1ccc2c(c1)C(=O)N(C)[C@@H]1CC[C@H](CC(=O)NCc3ccc(F)cc3)O[C@@H]1CO2` was tested. Which active concentration did it give?
Answer: > 10 µM (inactive)

Question: `CN(C)C(=O)c1cccc(-c2ccc([C@H]3[C@H]4CN(CC5CCOCC5)CCCCN4[C@H]3CO)cc2)c1` was tested. Which active concentration did it give?
Answer: > 10 µM (inactive)

Question: With `O=C(CC1CC1)N1[C@H](CO)[C@@H]2c3ccccc3N(S(=O)(=O)c3ccccc3F)C[C@@H]21` as the molecule, how does the active concentration read?
Answer: > 10 µM (inactive)

Question: `COc1ccc(NC(=O)N2CC(=O)N3[C@H](CO)[C@@H](c4ccc(Br)cc4)[C@@H]3C2)cc1` was tested. Which active concentration did it give?
Answer: > 10 µM (inactive)

Question: How did the active concentration turn out when `CCC(=O)N1[C@H](CO)[C@@H](c2ccc(/C=C/c3ccccc3)cc2)C12CN(S(C)(=O)=O)C2` was run?
Answer: > 10 µM (inactive)

Question: Which active concentration does the source give for `CN1C(=O)c2cc(NS(C)(=O)=O)ccc2OC[C@H]2O[C@H](CC(=O)N3CCOCC3)CC[C@@H]21` here?
Answer: > 10 µM (inactive)

Question: With `CN(C)CC(=O)N1CC2(C1)[C@H](c1ccccc1)[C@@H](CO)N2S(C)(=O)=O` as the molecule, how does the active concentration read?
Answer: > 10 µM (inactive)

Question: For `N#C[C@H]1[C@H](c2ccccc2C2=CCCCC2)[C@H](CO)N1C(=O)c1cccc(F)c1`, which active concentration is on record?
Answer: > 10 µM (inactive)

Question: `O=C1CNC[C@@H]2[C@H](c3ccc(C#CC4CCCCC4)cc3)[C@@H](CO)N12` was tested. Which active concentration did it give?
Answer: > 10 µM (inactive)

Question: How did the active concentration turn out when `COc1ccc2c3c([nH]c2c1)[C@H](CO)N(C(C)=O)CC31CN(Cc2ccccc2Cl)C1` was run?
Answer: > 10 µM (inactive)

Question: `O=C(C1CCCCC1)N1CC(=O)N2[C@H](CO)[C@@H](c3ccc(-c4ccccc4F)cc3)[C@H]2C1` was tested. Which active concentration did it give?
Answer: > 10 µM (inactive)

Question: How did the active concentration turn out when `Cc1ccccc1S(=O)(=O)N1CC[C@@H]2[C@@H](CO)N(C)c3ccc(-c4cccc(C#N)c4)cc3[C@@H]21` was run?
Answer: > 10 µM (inactive)

Question: With `COc1ccccc1CNC(=O)C[C@H]1CC[C@@H]2[C@H](COC[C@@H](O)CN2C(=O)Nc2ccccc2)O1` as the molecule, how does the active concentration read?
Answer: > 10 µM (inactive)

Question: For `COCC#Cc1ccc([C@H]2[C@@H](CO)N3C(=O)CN(C(=O)Nc4ccccc4F)C[C@@H]23)cc1`, which active concentration is on record?
Answer: > 10 µM (inactive)

Question: For `O=C(C[C@H]1CC[C@@H]2[C@H](COC[C@@H](O)CN2S(=O)(=O)c2cccc(F)c2)O1)Nc1ccc(-c2ccccc2)cc1`, which active concentration is on record?
Answer: > 10 µM (inactive)

Question: With `O=C(c1ccccn1)N1CC2(C1)[C@H](c1ccccc1)[C@@H](CO)N2Cc1ccccc1` as the molecule, how does the active concentration read?
Answer: > 10 µM (inactive)

Question: How did the active concentration turn out when `CCCNC(=O)N1CC2(C1)CN(Cc1ccc(F)cc1)[C@H](CO)c1[nH]c3cc(OC)ccc3c12` was run?
Answer: > 10 µM (inactive)

Question: For `O=C(c1cccc(F)c1)N1CC2(C1)[C@H](c1ccccc1)[C@@H](CO)N2C(=O)C1CCCCC1`, which active concentration is on record?
Answer: > 10 µM (inactive)

Question: How did the active concentration turn out when `O=C(Nc1cc(F)ccc1F)N1CC(=O)N2[C@H](C1)[C@@H](c1ccc(/C=C/c3ccccc3)cc1)[C@@H]2CO` was run?
Answer: > 10 µM (inactive)

Question: How did the active concentration turn out when `COc1ccc(-c2ccc([C@@H]3[C@H]4CN(C(=O)Cc5ccncc5)CCCCN4[C@H]3CO)cc2)cc1` was run?
Answer: > 10 µM (inactive)

Question: How did the active concentration turn out when `COCC(=O)N1[C@H](C#N)[C@@H](c2ccccc2-c2ccccc2F)[C@@H]1CO` was run?
Answer: > 10 µM (inactive)

Question: For `N#C[C@@H]1[C@H](c2ccccc2-c2ccccc2)[C@H](CO)N1C(=O)Cc1ccncc1`, which active concentration is on record?
Answer: > 10 µM (inactive)

Question: Which active concentration does the source give for `COc1cccc(NC(=O)Nc2ccc3c(c2)C(=O)N(C)[C@@H]2CC[C@@H](CC(=O)NCCc4ccccc4)O[C@@H]2CO3)c1` here?
Answer: > 10 µM (inactive)

Question: How did the active concentration turn out when `C/C=C/c1ccc([C@@H]2[C@@H](CO)N3C(=O)CN(C(=O)c4ccncc4)C[C@@H]23)cc1` was run?
Answer: > 10 µM (inactive)

Question: For `O=C(C[C@@H]1CC[C@H]2[C@@H](COC[C@@H](O)CN2Cc2cc(F)ccc2F)O1)NCc1ccc(F)cc1`, which active concentration is on record?
Answer: > 10 µM (inactive)

Question: How did the active concentration turn out when `COc1ccc2c3c(n(C)c2c1)[C@H](CO)N(Cc1cccc(F)c1)CC31CCN(C(=O)Cc2ccccc2)CC1` was run?
Answer: > 10 µM (inactive)

Question: For `O=C1CNC[C@H]2[C@@H](c3ccc(C#CC4CCCCC4)cc3)[C@@H](CO)N12`, which active concentration is on record?
Answer: > 10 µM (inactive)

Question: Which active concentration does the source give for `O=C(CC1CC1)N1CC(=O)N2[C@H](CO)[C@H](c3ccc(/C=C/c4ccccc4)cc3)[C@@H]2C1` here?
Answer: > 10 µM (inactive)

Question: `C/C=C/c1ccc([C@@H]2[C@@H](CO)N3C(=O)CN(S(=O)(=O)c4ccccc4)C[C@H]23)cc1` was tested. Which active concentration did it give?
Answer: > 10 µM (inactive)

Question: Which active concentration does the source give for `O=C(C[C@H]1CC[C@@H]2[C@H](COC[C@H](O)CN2C(=O)Nc2ccc(Cl)c(Cl)c2)O1)NCc1ccc(Cl)cc1` here?
Answer: > 10 µM (inactive)

Question: For `COc1ccc(C#Cc2ccc3c(c2)[C@H]2[C@H](CCN2C(=O)CN2CCOCC2)[C@H](CO)N3C)cc1`, which active concentration is on record?
Answer: > 10 µM (inactive)

Question: For `O=C(C[C@@H]1CC[C@H]2[C@@H](COC[C@@H](O)CN2S(=O)(=O)c2ccc(F)cc2)O1)NCC1CC1`, which active concentration is on record?
Answer: > 10 µM (inactive)

Question: Which active concentration does the source give for `CCCNC(=O)N1[C@@H](CO)[C@@H](c2ccccc2)C12CN(C(=O)C1CCCCC1)C2` here?
Answer: > 10 µM (inactive)

Question: For `O=C(C[C@H]1CC[C@@H]2[C@H](COC[C@H](O)CN2CCc2ccccc2)O1)NCc1ccc(F)cc1`, which active concentration is on record?
Answer: > 10 µM (inactive)

Question: How did the active concentration turn out when `CC(C)CC#Cc1ccc([C@H]2[C@@H](CO)N3C(=O)CN(S(=O)(=O)c4cccc(F)c4)C[C@@H]23)cc1` was run?
Answer: > 10 µM (inactive)

Question: Which active concentration does the source give for `CCCNC(=O)N1[C@H](CO)[C@H](c2ccccc2-c2ccccc2F)[C@@H]1C#N` here?
Answer: > 10 µM (inactive)

Question: `O=C(CC1CC1)N1CC(=O)N2[C@H](C1)[C@@H](c1ccc(/C=C/c3ccccc3)cc1)[C@@H]2CO` was tested. Which active concentration did it give?
Answer: > 10 µM (inactive)

Question: For `O=C(C[C@@H]1CC[C@H]2[C@@H](COC[C@@H](O)CN2C(=O)Nc2cc(Cl)cc(Cl)c2)O1)NCC1CCCCC1`, which active concentration is on record?
Answer: > 10 µM (inactive)

Question: With `O=C(Cc1ccccn1)N1CC[C@@H]2[C@H](CO)Nc3ccc(-c4cccc(F)c4)cc3[C@@H]21` as the molecule, how does the active concentration read?
Answer: > 10 µM (inactive)

Question: How did the active concentration turn out when `COc1cccc(CN2CCCCN3[C@H](C2)[C@H](c2ccc(-c4cccnc4)cc2)[C@@H]3CO)c1` was run?
Answer: > 10 µM (inactive)

Question: How did the active concentration turn out when `O=C(C[C@@H]1CC[C@@H]2[C@H](COC[C@H](O)CN2Cc2cc(F)cc(F)c2)O1)NC1CCC1` was run?
Answer: > 10 µM (inactive)

Question: Which active concentration does the source give for `CCS(=O)(=O)N1CCC2(CC1)CN(C(=O)Nc1c(C)noc1C)[C@H](CO)c1c2c2ccc(OC)cc2n1C` here?
Answer: > 10 µM (inactive)

Question: For `C[C@H](NC(=O)[C@@H]1[C@@H](CO)[C@@H]2Cn3c(cccc3=O)[C@H]1N2CCC(F)(F)F)c1ccccc1`, which active concentration is on record?
Answer: > 10 µM (inactive)

Question: How did the active concentration turn out when `COc1ccccc1-c1ccccc1[C@H]1[C@@H](C#N)N(C(=O)CN(C)C)[C@@H]1CO` was run?
Answer: > 10 µM (inactive)

Question: With `CCN1CC(=O)N2[C@H](CO)[C@@H](c3ccc(Br)cc3)[C@@H]2C1` as the molecule, how does the active concentration read?
Answer: > 10 µM (inactive)

Question: Which active concentration does the source give for `O=C(c1cccc(F)c1)N1CCCCN2[C@H](C1)[C@@H](c1ccc(C#CC3(O)CCCC3)cc1)[C@@H]2CO` here?
Answer: > 10 µM (inactive)

Question: With `O=C(NC1CCCCC1)[C@@H]1N[C@@H]2c3ccc(-c4cccc(F)c4)c(=O)n3C[C@@H]2[C@H]1CO` as the molecule, how does the active concentration read?
Answer: > 10 µM (inactive)

Question: Which active concentration does the source give for `O=C(Nc1cc(F)ccc1F)N1CCCCN2[C@@H](CO)[C@@H](c3ccc(C4=CCCCC4)cc3)[C@@H]2C1` here?
Answer: > 10 µM (inactive)

Question: How did the active concentration turn out when `COCC#Cc1ccc([C@@H]2[C@@H](CO)N3C(=O)CN(C(=O)Nc4ccccc4F)C[C@H]23)cc1` was run?
Answer: > 10 µM (inactive)
